Test results from US20130102662A1, “USE OF INDUCIBLE NITRIC OXIDE SYNTHASE INHIBITORS AND NITRIC OXIDE […] INHIBIT POST-[…] IMMUNODEPRESSION” (University of Pittsburgh - of the Commonwealth System of …, priority 2011, published 2013).

Columns and labels:
splenocytes [1] = test: Splenocyte IFNγ release 48 hours after pseudofracture trauma, mice given 1400 W; assay type: in vivo; settings: C57BL/6 mice, 1400 W 5 mg/kg intraperitoneally
Protocol: Control mice received no experimental manipulation.
Mice were euthanized at 6 and 48 hours.

splenocytes [2] = test: Splenocyte proliferation (3H-dT uptake) 48 hours after pseudofracture + laparotomy, NOX-100 by osmotic pump; assay type: in vivo, C57BL/6 mice; settings: PF+laparotomy, NOX-100 30 mg/kg/hr over 48 hours by intraperitoneal osmotic pump, Mean±SEM
Protocol: The mice were divided into six groups (n=5-10):
(§1) Mice then also received either NOX-100 at a dose of 30 mg/kg/hr or vehicle (Veh) over the 48 hour time period. A controlled, continuous drug delivery rate was established through the use of osmotic pumps inserted intraperitoneally by laparotomy. Laparotomy with pump insertion was performed at the time of trauma (0 hours). Please note that the laparotomy procedure itself is considered a significant trauma. Mice in the ‘Unmanipulated controls’ group received no experimental manipulation.
Mice were euthanized at a 48 hour time point. Measurements at this late time point included assessment of splenocyte responses. Splenocyte proliferation, a well established parameter of immune dysfunction was assessed. […] Splenocyte proliferation was assessed using tritiated thymidine (^3H-dT) uptake as counts per minute (c.p.m.).

splenocytes [3] = test: Splenocyte interferon-gamma release (ELISA) 48 hours after pseudofracture + laparotomy, NOX-100 by osmotic pump; assay type: in vivo, C57BL/6 mice
Protocol: as §1
Additional measurements of splenocyte responses at the late 48 hr time point included assessment of splenocyte interferon-gamma release, an established parameter of immune dysfunction. […] Splenocyte culture supernatants were collected and assessed by ELISA.

| SMILES | Interferon-gamma release by splenocytes after antiCD3e stimulation following trauma (splenocytes [1]; antiCD3e 1 μg/ml (FIG. 6)) | Concanavalin A stimulated splenocyte cytokine release (IFNγ) following trauma (splenocytes [1]; concanavalin A 2.5 μg/ml (FIG. 4)) | Splenocyte proliferation, tritiated thymidine uptake after antiCD3e stimulation (splenocytes [2]; antiCD3e 1 μg/ml, p<0.05 vs vehicle (FIG. 9B)) [c.p.m.] | Splenocyte proliferation, tritiated thymidine uptake after concanavalin A stimulation (splenocytes [2]; concanavalin A 2.5 μg/ml, p=0.062 vs vehicle (FIG. 9A)) [c.p.m.] | Post-injury decrease in splenocyte release of interferon gamma, effect of administration (splenocytes [3]; 48 hrs post injury, NOX-100 30 mg/kg/hr (FIGS. 10A-B)) | Splenocyte interferon-gamma release after antiCD3e stimulation (splenocytes [3]; PF+laparotomy, NOX-100 30 mg/kg/hr over 48 hours by intraperitoneal osmotic pump, antiCD3e 1 μg/ml, Mean±SEM, p<0.05 vs vehicle (FIG. 10B)) [pg/mL] |
| --- | --- | --- | --- | --- | --- | --- |
| CC(=N)NCc1cccc(CN)c1 [1400 W, N-(3-(Aminomethyl)benzyl)acetamidine] | no depression in cytokine release | not significantly reduced | – | – | – | – |
| CN(C[C@H](O)[C@@H](O)[C@H](O)[C@H](O)CO)C(=S)[S][Na] [NOX-100] | – | – | 45208.9±4890.5 | 33658.6±3787.9 | reversed | 604.70 ± 86.96 |
